{"source": "patent US20220047687A1", "about": "“CHEMICAL SCALPEL” (FUNDACIÓN INSTITUTO DE INVESTIGACIÓN SANITARIA FUNDACIÓN …, priority 2019, published 2022)", "key": {"[1]": {"test_system": "tissue originating from patients with peritoneal carcinomatosis", "assay": "In vitro collagenase treatment of patient tumor tissue fragments", "format": "cell-based, human", "details": "for cells released from tissues: culture at 96 hours", "procedure": "After obtaining authorization from the Committee for Research with Medicinal Products (PIC 75/2016_FJD) of Fundación Jiménez Díaz, the tissue originating from patients with peritoneal carcinomatosis who signed the consent was collected. Tissue fragments were included in multiwell plates and treated with 35 U/mL of collagenase for 30 minutes or for a period of 24 hrs, the cultures were then washed and cells obtained from the enzyme treatment were analyzed. The idea was to check at different times if mesothelial cells were obtained alone or tumor cells were obtained as well. FIG. 1."}, "[2]": {"test_system": "mesothelial layer covering the intestinal tract", "assay": "First tests of peritoneal washing with collagenase on rat (Wistar)", "format": "in vivo", "details": "optimum concentration and time (35 U/mL, 10-15 minutes)", "procedure": "For the purpose of fine-tuning the volume of the cavity and the optimum treatment time so that no organ in the cavity will sustain any damage, twenty 6-week old Wistar rats weighing 250 grams were used, and they were tested at different concentrations of 35 U/mL of collagenase and 37 U/mL of collagenase for clinical use. Up until now, all the studies had been performed with collagenase for experimental use, nevertheless, the choice was made to use collagenase authorized for clinical use from now on, taking into account the potency equivalence calculations requested from the manufacturer. A study was then conducted using different times of treatment with collagenase from 2 minutes to 30 minutes (30, 20, 15, 10, 5, and 2) with n=2 in the 4 intermediate times."}, "[3]": {"test_system": "peritoneal carcinomatosis (DHD cells)", "assay": "Adjusting the dose of collagenase as co-adjuvant in rats with carcinomatosis", "format": "in vivo, rat", "details": "10 minutes, 37° C.", "procedure": "In this sense, after the inoculation of DHD cells in all the animals, and therefore the induction of solid tumors in the peritoneum (peritoneal carcinomatosis), the optimum dose of collagenase in terms of safety for use thereof as a co-adjuvant for or enhancer of chemotherapy treatment with mitomycin C in various work groups was determined: • Control group: washed only with Ringer's lactate. The mesoderm readily separates and washing is non-hematic. Compact omentum. • Group 1: 370 U/mL of collagenase. Hematic washing liquid, destruction of the omentum and mesoderm. Tumor fragments in the washing liquid. • Group 2: 148 U/mL of collagenase. Slightly hematic washing liquid, readily separable omentum and mesoderm. Solid tumor fragments are observed in the washing liquid. • Group 3: 74 U/mL of collagenase. Non-hematic washing liquid, readily separable omentum and mesoderm. Few implants are observed in the washing liquid but the accessibility of the tumor implants in the mesoderm and omentum is absolute. • Group 4: 37 U/mL of collagenase. Non-hematic washing liquid, readily separable omentum and mesoderm. No tumor implants observed in the washing liquid, but they are seen to be completely exposed in both the mesoderm and omentum.\nThe surgical procedures during this phase consisted of a first method of peritoneal cancer induction in which DHD cells were injected into the peritoneum and 6-8 weeks were allowed to elapse until the checking for the existence of tumor masses in the peritoneum by means of abdominal palpation, and a second method of treatment in which, after giving the animals inhalation anesthesia, the abdominal cavity was exposed by means of a longitudinal incision of the abdomen, the peritoneal cavity filled with the collagenase solution at the different concentrations to be tested at 37° C."}, "[4]": {"test_system": "peritoneal adhesions (polypropylene mesh)", "assay": "Peritoneal adhesion model group 2 (4 large meshes): adhesion tear test", "format": "in vivo, rat", "details": "group 2, blind study, 0.05%; PBS control 325.76", "procedure": "About one month later, intervention is performed on 6 additional 6-week old Wistar rats belonging to a second group (Group II). After inhalation anesthesia with Forane, the animal being shaved, and aseptic measures being implemented, laparotomy is performed with the implantation of 4 polypropylene meshes in the abdominal cavity, 2 on each side of the midline. Prior to implantation, the mesh is wetted with pss.\nSecondly, experiments were performed on the rats belonging to group 2. The rats in this group were operated on, divided into two groups with 3 rats each, where a first group received 0.05% collagenase and the other placebo (PBS). After that they were subjected to an adhesion tear test, measuring the maximum pressure and the curve at which the adhesion tore. To that end, an adhesion tear measurement system was used which consisted of a high-precision digital pressure gauge that measured the pressure of a closed and rigid system with three outlets. One was a manual pressure pump, the other one was a piston with linear mobility to which clamps for pulling are fitted and which takes pressure away from the pressure gauge. The pressure needed to cause the tear of the adhesions generated in the collagenase group vs. control group was measured with this system."}, "cytokines and chemokines": {"test_system": "cytokines and chemokines", "assay": "Cytokines circulating in plasma after collagenase washing", "format": "in vivo, rat", "procedure": "A new blood test was performed with the 10 rats in the 1st group. For each of them, blood was taken 15 days after surgery. Post-collagenase cytokines were analyzed.\nA new blood test is performed on the 6 rats in the 2nd group on 26/07/2018 and on the 4 controls.\nPost-collagenase cytokines are analyzed"}, "peritoneal tissues [5]": {"test_system": "peritoneal tissues", "assay": "Safety, histology and biochemistry in the adhesion model", "method": "The concentration of collagenase used was 0.05% in PBS, with an application time of 20 min, in a volume of 20 ml, and at a temperature of 37° C. in a thermal blanket and with prior tempering of the drug.\nBlood was drawn from all the rats by intracardiac puncture for biochemistry and cytokines."}, "peritoneal tissues [6]": {"test_system": "peritoneal tissues", "assay": "First tests of peritoneal washing with collagenase on mouse (fine-tuning)", "details": "for necropsy findings: mice", "method": "Six 5-week old double knock-out female mice (LIPDKO), from which the lipocalin-2 gene (which affects neutrophil recruitment) and the ApoE gene (which makes it more probable for the mice to develop atherosclerosis) have been eliminated, were used. […] Each concentration was injected to 2 mice according to their weight.\nCells obtained from washing which grew in culture dishes as well as the morphology of the peritoneal tissues after washing at different concentrations were analyzed.\nOnce the enzyme dose was selected, the actuation time was determined in the same manner and on the same model by means of tests from 40, 30, 20, 10, and 5 minutes. Throughout this fine-tuning method, the washing liquid was collected and cultured in a complete medium to analyze the cells obtained; different organs of the animals were also collected at the same time to check for the existence at any time (concentration/time) of any organ damage and to check the condition of the peritoneal tissues."}, "[7]": {"test_system": "peritoneal carcinomatosis (DHD cells)", "assay": "Phase I fine-tuning of collagenase peritoneal washing on rats with peritoneal carcinomatosis", "method": "For the development of the “in vivo” model, carcinomatosis was caused in 6 BDIX rats, treatment was proposed after 4 weeks. The treatment consisted of using different concentrations (370 U/mL, 2×148 U/mL, 74 U/mL, 37 U/mL, 0) of collagenase by means of peritoneal washing and it was performed in an open system by means of using a perfusion pump on 3 animals and without using any perfusion pump on 3 other animals (FIG. 3). […] The method for peritoneal washing consisted of, after giving the animals inhalation anesthesia, exposing the abdominal cavity with a longitudinal incision and filling the peritoneal cavity with collagenase diluted to the different concentrations mentioned above. Continuous washing of the peritoneum (only with Ringer's lactate) was then performed; the animals were chosen randomly in each case and treatment lasted for 10 minutes in all the animals.\nWashed tissue samples as well as organs were collected for histological studies in all cases (FIG. 4)."}}, "note": "Entries after “also recorded” stand apart in the source; their conditions may differ.", "data": [{"substance": "Collagenase", "values": [{"measurement": "effect of collagenase on tumor tissues in vitro", "setting": "[1]; 35 U/mL", "result": "breaks the edges of the tissues, releasing mesothelial cells and limiting tumor vascularization"}, {"measurement": "enzyme time beyond which tissues become damaged and viability of extracted cells is inhibited", "setting": "[1]; in vitro", "result": "exceeding 45 minutes"}, {"measurement": "cells released from tissues", "setting": "[1]; tissues digested for 30 minutes", "result": "mesothelial cells released by collagenase"}, {"measurement": "cells released from tissues", "setting": "[1]; tissues digested for 24 hours", "result": "release of cells with tumor morphology and highly refringent mesothelial cells"}, {"measurement": "macroscopic and histological findings", "setting": "[2]", "result": "No organ or tissue impairment is observed histologically; also recorded: elimination of the mesothelial cells covering the intestine and omentum is observed but without the involvement of any organ; also recorded: thinning of the mesothelial layer covering the intestinal tract without the involvement of intermediate or internal layers"}, {"measurement": "washing liquid, omentum, mesoderm and tumor implants after washing", "setting": "[3]; Group 1: 370 U/mL", "result": "Hematic washing liquid, destruction of the omentum and mesoderm. Tumor fragments in the washing liquid."}, {"measurement": "washing liquid, omentum, mesoderm and tumor implants after washing", "setting": "[3]; Group 2: 148 U/mL", "result": "Slightly hematic washing liquid, readily separable omentum and mesoderm. Solid tumor fragments are observed in the washing liquid."}, {"measurement": "washing liquid, omentum, mesoderm and tumor implants after washing", "setting": "[3]; Group 3: 74 U/mL", "result": "Non-hematic washing liquid, readily separable omentum and mesoderm. Few implants are observed in the washing liquid but the accessibility of the tumor implants in the mesoderm and omentum is absolute."}, {"measurement": "washing liquid, omentum, mesoderm and tumor implants after washing", "setting": "[3]; Group 4: 37 U/mL", "result": "Non-hematic washing liquid, readily separable omentum and mesoderm. No tumor implants observed in the washing liquid, but they are seen to be completely exposed in both the mesoderm and omentum."}, {"measurement": "adhesion tear pressure", "setting": "[4]", "result": 188.26, "unit": "millibar"}, {"measurement": "IL4 in plasma vs PBS", "setting": "cytokines and chemokines; anti-inflammatory cytokine", "result": "Insignificant increase"}, {"measurement": "IL10 in plasma vs PBS", "setting": "cytokines and chemokines; anti-inflammatory cytokine", "result": "Insignificant increase"}, {"measurement": "levels of all the cytokines and chemokines between the 2 groups", "setting": "cytokines and chemokines; at four months", "result": "normalized"}, {"measurement": "G-CSF in plasma vs PBS", "setting": "cytokines and chemokines; chemokines", "result": "no difference"}, {"measurement": "GM-CSF in plasma vs PBS", "setting": "cytokines and chemokines; chemokines", "result": "no difference"}, {"measurement": "KC in plasma vs PBS", "setting": "cytokines and chemokines; chemokines", "result": "no difference"}, {"measurement": "M-MCF in plasma vs PBS", "setting": "cytokines and chemokines; chemokines", "result": "no difference"}, {"measurement": "MCP1 in plasma vs PBS", "setting": "cytokines and chemokines; chemokines", "result": "significant increase"}, {"measurement": "MIP3a in plasma vs PBS", "setting": "cytokines and chemokines; chemokines", "result": "no difference"}, {"measurement": "MIPla in plasma vs PBS", "setting": "cytokines and chemokines; chemokines", "result": "no difference"}, {"measurement": "RANTRES in plasma vs PBS", "setting": "cytokines and chemokines; chemokines", "result": "no difference"}, {"measurement": "VEGF in plasma vs PBS", "setting": "cytokines and chemokines; chemokines", "result": "significant increase"}, {"measurement": "IL12-p70 in plasma vs PBS", "setting": "cytokines and chemokines; pro-inflammatory cytokine", "result": "Significant increase (p<0.01)"}, {"measurement": "INF-gamma in plasma vs PBS", "setting": "cytokines and chemokines; pro-inflammatory cytokine", "result": "no differences"}, {"measurement": "TNF-alpha in plasma vs PBS", "setting": "cytokines and chemokines; pro-inflammatory cytokine", "result": "Significant increase (p<0.01)"}, {"measurement": "IL1a in plasma vs PBS", "setting": "cytokines and chemokines; regulatory cytokine", "result": "no difference"}, {"measurement": "IL1b in plasma vs PBS", "setting": "cytokines and chemokines; regulatory cytokine", "result": "no difference"}, {"measurement": "IL2 in plasma vs PBS", "setting": "cytokines and chemokines; regulatory cytokine", "result": "significant increase (p<0.05)"}, {"measurement": "IL5 in plasma vs PBS", "setting": "cytokines and chemokines; regulatory cytokine", "result": "no difference"}, {"measurement": "IL6 in plasma vs PBS", "setting": "cytokines and chemokines; regulatory cytokine", "result": "no difference"}, {"measurement": "IL7 in plasma vs PBS", "setting": "cytokines and chemokines; regulatory cytokine", "result": "no difference"}, {"measurement": "IL13 in plasma vs PBS", "setting": "cytokines and chemokines; regulatory cytokine", "result": "no difference"}, {"measurement": "IL17a in plasma vs PBS", "setting": "cytokines and chemokines; regulatory cytokine", "result": "no difference"}, {"measurement": "IL18 in plasma vs PBS", "setting": "cytokines and chemokines; regulatory cytokine", "result": "significant increase (p<0.05)"}, {"measurement": "release of adhesions (final conclusion)", "setting": "peritoneal tissues [5]; 37 mg/Kg for 20 minutes at 37° C. as a peritoneal washing, murine model", "result": "favors the release of adhesions"}, {"measurement": "other relevant finding upon application of the treatment", "setting": "peritoneal tissues [5]; 0.05% in PBS, 20 min, 20 ml, 37° C.", "result": "pancreatic reaction"}, {"measurement": "safety of intraperitoneal application", "setting": "peritoneal tissues [5]; 0.05%, vigorous washing at 37° C. for 20 minutes, murine model", "result": "safe for intraperitoneal application in a murine model, without associated mortality"}, {"measurement": "analysis of the models at euthanasia, drug vs PBS", "setting": "peritoneal tissues [5]; 2 months after the use of drug or PBS", "result": "did not show any significant differences; also recorded: fewer adhesions did subjectively appear"}, {"measurement": "histological study of tissues", "setting": "peritoneal tissues [5]; animals with small or large meshes, peritoneal washing with collagenase", "result": "are not affected"}, {"measurement": "amylase", "setting": "peritoneal tissues [5]; both study groups", "result": "increases in both study groups"}, {"measurement": "biochemical or hematologic parameters", "setting": "peritoneal tissues [5]; serial tests, immediately and at different points of control after the intervention", "result": "without finding significant differences with the control groups"}, {"measurement": "clinical observations half an hour after administration", "setting": "peritoneal tissues [6]; mice 5 and 6, highest doses of collagenase", "result": "lethargic, exhibited signs of pain and a very reduced response to handling; also recorded: the abdominal wall had become detached"}, {"measurement": "mortality", "setting": "peritoneal tissues [6]; mice with the highest doses of collagenase", "result": "died within one hour"}, {"measurement": "necropsy findings", "setting": "peritoneal tissues [6]; 17.5 U/mL and 8.75 U/mL (one mouse each line)", "result": "somewhat hematic abdominal wall that has experienced the least thinning; also recorded: abdominal wall with a normal appearance and color"}, {"measurement": "necropsy findings", "setting": "peritoneal tissues [6]; 35 U/mL", "result": "very thin hematic abdominal wall that ruptures by itself"}, {"measurement": "necropsy findings", "setting": "peritoneal tissues [6]; 87.5 U/mL", "result": "hematic, practically transparent abdominal wall that completely comes off the skin and ruptures by itself when touched"}, {"measurement": "clinical observations half an hour after administration", "setting": "peritoneal tissues [6]; one mouse, 35 U/mL", "result": "responded well to handling but exhibited signs of pain"}, {"measurement": "Macroscopic observations", "setting": "[7]; animal ID 1, 35 U/ml, PCI 13", "result": "All rather hematic. Implants"}, {"measurement": "Macroscopic observations", "setting": "[7]; animal ID 2, 8.75 U/ml, PCI 10, pump not used", "result": "Pump is not used. Implants do"}, {"measurement": "Macroscopic observations", "setting": "[7]; animal ID 3, 35 U/ml, PCI 2", "result": "Mesoderm readily separates."}, {"measurement": "Macroscopic observations", "setting": "[7]; animal ID 5, 87.5 U/ml, PCI 10", "result": "All hematic. Omentum,"}, {"measurement": "follow-up of the only animal left alive after treatment", "setting": "[7]; rat, in vivo", "result": "showed no impairments or pain"}]}]}
